Source: paper PMC11721293 (JCI Insight, 2025)
Several values for one entry are separate records, joined by “and”; a condition that tells them apart may be missing. Equal values may be shown once.

Key:
SARS-CoV-2-nLUC [1] = experiment: microbe, parasite or virus in culture; assay type: cell-based; settings: GGTI vs DMSO; replicates
omicron BA4.6 variant = experiment: Drug combination, omicron BA4.6 in VeroE6, qRT-PCR; assay type: cell-based, SARS-CoV-2; settings: replicates
[2] = system: SARS-CoV-2-nLuc in cells overexpressing WT FTase; experiment: microbe, parasite or virus in culture; assay type: cell-based; settings: for luciferase activity (relative): WT
[3] = system: SARS-CoV-2-nLuc in cells overexpressing W106R mutant FTase; assay type: cell-based
SARS-CoV-2-nLUC [4] = assay type: cell-based

Cc1nc[nH]c1CN1CCN(C(=O)N[C@@H](CC(C)C)C(=O)O)[C@@H](Cc2ccccc2)C1=O [GGTI2418]
signal relative to DMSO (sheet S7A) (SARS-CoV-2-nLUC [1]): 90.3685 and 93.0121 and 91.627 and 90.3081

NC(=O)N1CCC(CC(=O)N2CCC([C@H]3c4ncc(Br)cc4CCc4cc(Cl)cc(Br)c43)CC2)CC1 [LNF, lonafarnib]
S3E viral level relative to LNF 0/ NRTV 0 (omicron BA4.6 variant; LNF 1/ NRTV 0): 69.1766 and 49.5863 and 50.5202
S3D viral level relative to LNF 0/ RDV 0 (omicron BA4.6 variant; LNF 1/ RDV 0): 32.8373 and 32.7511 and 35.1123
S3E viral level relative to LNF 0/ NRTV 0 (omicron BA4.6 variant; LNF 10/ NRTV 0): 2.995 and 4.305 and 4.101
S3D viral level relative to LNF 0/ RDV 0 (omicron BA4.6 variant; LNF 10/ RDV 0): 2.77 and 3.103 and 2.149
IC50 ([2]; Severe acute respiratory syndrome coronavirus 2, Vero C1008, VeroE6 transfected with WT FNTB, 24 h): 1.1 µM
luciferase activity (relative) ([2]; Log[LNF} mM (printed) 0.09691): 63.7112 and 63.9819 and 49.739 and 50.5313
luciferase activity (relative) ([2]; Log[LNF} mM (printed) 0.39794): 34.2371 and 34.2326 and 46.1621 and 47.4504
luciferase activity (relative) ([2]; Log[LNF} mM (printed) 0.69897): 15.3696 and 15.2721 and 16.4684 and 16.5029
luciferase activity (relative) ([2]; Log[LNF} mM (printed) 1): 6.188 and 5.457 and 5.008 and 4.944
luciferase activity (relative) ([2]; Log[LNF} mM (printed) -0.20412): 54.7411 and 54.7908 and 56.706 and 57.079
luciferase activity (relative) ([2]; Log[LNF} mM (printed) -0.50515): 62.6012 and 61.9491 and 68.0615 and 68.2295
luciferase activity (relative) ([2]; Log[LNF} mM (printed) -0.80618): 99.8257 and 98.9 and 84.2901 and 84.2134
luciferase activity (relative) ([2]; Log[LNF} mM (printed) -1.10721): 97.017 and 96.4383 and 93.6225 and 92.4394
fold less effective in cells expressing mutant FTase vs WT [3]: ~2 fold
IC50 ([3]; read-out: Mut IC50): 2.2 µM

CC(C)(C)[C@H](NC(=O)C(F)(F)F)C(=O)N1C[C@H]2[C@@H]([C@H]1C(=O)N[C@H](C#N)C[C@@H]1CCNC1=O)C2(C)C [NRTV, nirmatrelvir]
S3E viral level relative to LNF 0/ NRTV 0 (omicron BA4.6 variant; LNF 0/ NRTV 0.5): 47.9329 and 37.1942 and 53.3183
S3E viral level relative to LNF 0/ NRTV 0 (omicron BA4.6 variant; LNF 0/ NRTV 5): 1.354 and 1.072 and 1.497

CN(C)C(=O)COC(=O)Cc1ccc(OC(=O)c2ccc(NC(=N)N)cc2)cc1 [camostat]
infection signal (sheet S4F) (SARS-CoV-2-nLUC [4]): 74.3368 and 81.9164 and 86.4071 and 85.3028 and 90.7155 and 94.6132 and 81.833 and 79.6415
